Like-named read-outs stand apart in the source and are kept apart here.
What was measured:
[1] = tested on: Human prostate PC3 tumor cells; assay: aFGF/bFGF-induced resistance and reversal by suramin, sulforhodamine B assay; assay type: cell-based
Method: The experimental conditions are described briefly below. […] Cell number was measured using the sulforhodamine B assay which measures the total protein concentration. […] The FGF-induced resistance was dependent on the FGF concentrations, with a higher resistance at higher FGF concentrations.

[2] = tested on: human leukemic cell line CCRF-CEM; assay: FGF-induced resistance to fludarabine, MTT assay; assay type: cell-based; details: 96 h, 96 hour treatment, read-out: concentration required to produce 50%
[3] = tested on: Human prostate PC3 tumor cells; assay: cells; assay type: cell-based; details: read-out: IC50, suramin concentration required to result in 50% reduction in BrdU incorporation
Method: PC3 and PC3-LN tumor cells. […] […].
Cells are harvested from subconfluent cultures using trypsin and resuspended in fresh medium before plating. […] Cells are plated in 96 well microtiter plates at a density such that confluence would not be achieved at the end of the drug treatment period. Cells are allowed to attach to the plate surface by growing in drug-free medium for 20 to 24 hr. […] The drug effect should be measured as inhibition of BrdU incorporation, e.g., according to the Cell Proliferation ELISA BrdU (Boehringer Mannheim).

[4] = Jodrell et al (1994); cited from earlier work
rat MAT-LyLu tumor cells [5] = assay: Reversal of CM-induced resistance by FGF antibodies and suramin, BrdU incorporation; assay type: cell-based; details: CM of histocultures of lung metastases
Method: The source of CM was lung histocultures for the aFGF experiment, and early monolayer lung cultures for the bFGF experiment. The study used four controls: no CM (left solid curves, open circles); addition of 5 μg/ml aFGF or bFGF antibody but no CM (inverted filled triangle, overlaps with the left control curve); addition of CM but no antibody (right solid curves, open square); addition of CM plus a nonspecific antibody, IgG (5 μg/ml, filled diamond, overlaps with the right CM-control curve). Dotted curves, from right to left, addition of aFGF or bFGF antibody concentrations of 0.05 μg/ml (filled circle); 0.1 μg/ml (filled square); 1 or 0.5 μg/ml (filled triangle); and 5 μg/ml (open inverted triangle). […] Similar results were also found for human PC3 prostate tumor cells.
The first study used specific inhibitors of extracellular aFGF and bFGF, i.e., monoclonal antibodies (FIG. 2A). […] In the presence of the active CM, the bFGF antibody produced a concentration-dependent reversal of the CM-induced chemoresistance, with complete reversal by 5 microgram/ml antibody, whereas a nonspecific antibody (i.e., non-immune rabbit IgG) had no effect. For aFGF, the antibody treatment partially reversed the CM-induced resistance; the maximum reversal was about 60% that was obtained with 1 microgram/ml antibody with no significant additional reversal at a 5-fold higher concentration. The second study evaluated the effect of removing aFGF and/or bFGF from the active CM by immunoprecipitation. Removal of bFGF abolished the resistance, whereas removal of aFGF only partially reversed the CM effect. These two studies indicate that both aFGF and bFGF were involved in the resistance, but had different roles.
This study was performed using the rat MAT-LyLu tumor cells as the model tumor cells and using doxorubicin and paclitaxel as the model anticancer agents. The CM used to induce resistance was collected from histocultures of lung metastases (see Table 1). Five microgram/ml anti-bFGF antibody was added.

[6] = tested on: human prostate PC3-LN tumor cells; assay: cells; assay type: cell-based; details: read-out: IC50, suramin concentration required to result in 50% reduction in BrdU incorporation
clinical = details: human, plasma, 240 mg/m^2
rat MAT-LyLu tumor cells [7] = assay: Cytotoxicity of suramin alone, reduction of BrdU incorporation; assay type: cell-based; details: read-out: IC50, suramin concentration required to result in 50% reduction in BrdU incorporation
[8] = tested on: human PC3-LN lung metastases
Method: Animal care was in accordance with the guidelines at the Ohio State University. Several human tumor models were used, including (a) lung metastases derived from intravenous injection of human PC3-LN tumor cells, (b) lung tumors derived from direct injection of human PC3 cells in lungs, and (c) subcutaneously implanted PC3 tumors. Four studies were performed. In all studies, drug treatment was administered intravenously via a tail vein, after the tumor was established. The first and second studies used the intravenous PC3-LN lung metastasis model. Briefly, human PC3-LN cells ([…] in 0.1 ml physiologic saline) were injected intravenously, via a tail vein, into immunodeficient mice. […] Treatment was given twice weekly for three weeks. […] Three days after completion of drug treatments, animals were euthanized and their lungs removed, fixed in Bouin's solution to visualize tumor nodules, and then processed for histologic evaluation. […] The lung surface area (counted as number of pixel) occupied by the tumor was calculated as a fraction of the total lung area, using Adobe PhotoShop. The number of tumor cells in residual tumors and the fraction of apoptotic cells in each tumor were also determined microscopically. Because apoptotic cells disappear over time, a second measure of the extent of apoptosis was the density of non-apoptotic cells in the residual tumors. This was determined by counting the number of non-apoptotic tumor cells in randomly selected microscopic fields at 400× magnification. […] In the case of combination therapy where fewer than 5 tumor nodules remained per animal, all residual cells (between 20 to 600 cells per animal) were counted.

[9] = tested on: rat MAT-LyLu tumor cells, human prostate PC3 tumor cells, PC3-LN cells; assay: Reversal of CM/FGF-induced resistance by suramin; assay type: cell-based
Method: The study was performed using rat MAT-LyLu tumor cells (shown here) and human prostate PC3 and PC3-LN tumor cells. The cytotoxic effect was detected by measuring the changes in BrdU incorporation in treated samples relative to control samples.

human PC3 lung tumors = assay: Lung tumors established by direct injection of PC3 cells into the lungs of immunodeficient mice; assay type: in vivo; details: suramin alone, three doses of 20 mg/kg (n=3)
Method: (§1) Animal care was in accordance with the guidelines at the Ohio State University. Several human tumor models were used, including (a) lung metastases derived from intravenous injection of human PC3-LN tumor cells, (b) lung tumors derived from direct injection of human PC3 cells in lungs, and (c) subcutaneously implanted PC3 tumors. Four studies were performed. In all studies, drug treatment was administered intravenously via a tail vein, after the tumor was established. The first and second studies used the intravenous PC3-LN lung metastasis model. Briefly, human PC3-LN cells ([…] in 0.1 ml physiologic saline) were injected intravenously, via a tail vein, into immunodeficient mice. […] Treatment was given twice weekly for three weeks. […] The lung surface area (counted as number of pixel) occupied by the tumor was calculated as a fraction of the total lung area, using Adobe PhotoShop. The number of tumor cells in residual tumors and the fraction of apoptotic cells in each tumor were also determined microscopically. […] This was determined by counting the number of non-apoptotic tumor cells in randomly selected microscopic fields at 400× magnification. […] In the case of combination therapy where fewer than 5 tumor nodules remained per animal, all residual cells (between 20 to 600 cells per animal) were counted.

in vivo = details: mouse, iv, 10 mg/kg
Method: as §1

subcutaneous PC3 tumors = details: suramin 10 mg/kg, doxorubicin 5 mg/kg, twice weekly for 3 weeks
Method: Briefly, PC3 cells (5×10^6 cells) were injected subcutaneously.

rat tumor cells = assay: Doubling time of exponentially growing cells; assay type: cell-based; details: treatment with r-bFGF
rat MAT-LyLu cells = assay: Restoration of resistance by recombinant FGF in FGF-immunoprecipitated CM; assay type: cell-based
Method: The study was performed using rat MAT-LyLu cells. The reversal in CM-induced resistance was detected by measuring the changes in BrdU incorporation in treated samples relative to control samples. The source of CM was lung histocultures for both aFGF and bFGF experiments. The study used two controls: no CM (left solid curves, empty circles); with CM (right solid curves, empty squares). Upper left: CM minus […] (filled square); CM minus aFGF plus r-aFGF (filled circles, overlaps with the right CM-control curve). Upper right: CM minus bFGF (filled square, overlaps with the left control curve); CM minus bFGF plus r-bFGF (filled circle, overlaps with the right CM control curve). Lower left: Both the CM minus aFGF and bFGF (filled square) and the CM minus aFGF and bFGF plus aFGF (filled circle) curves overlap with the left control curve. Lower center: CM minus aFGF and bFGF (filled square, overlaps with left control curve); CM minus aFGF and bFGF plus r-bFGF (filled circle). Lower right: CM minus aFGF and bFGF (filled square, overlaps with left control curve); CM minus aFGF and bFGF plus r-aFGF and r-bFGF (filled circle, overlaps with the right CM-control curve).
aFGF or bFGF was immunoprecipitated with their respective monoclonal antibody (1 microgram/ml), in the presence of Protein G PLUS/protein A agarose (Oncogene). This procedure reduced the bFGF level in the original CM to below the detection limit of 5 pg/ml by the ELISA (Oncogene), and the aFGF level in the concentrated CM to below the detection limit by Western blotting.
The third study determined whether aFGF and/or bFGF are required for the resistance. Endogenous aFGF and/or bFGF were removed from the active CM by immunoprecipitation, and then reconstituted the CM using recombinant proteins. […] The fifth study confirmed that aFGF and bFGF were the main cause of chemoresistance, by using only r-aFGF and r-bFGF (i.e., without the immunoprecipitated CM) to induce resistance (FIG. 3). When given alone, r-aFGF had no effect whereas r-bFGF induced a concentration-dependent resistance. […]

PC3 tumor cells = assay: Doubling time of exponentially growing cells; assay type: cell-based, human; details: treatment with r-bFGF
[10] = no suramin, relative to control
[11] = doxorubicin study: suramin 10 mg/kg, doxorubicin 5 mg/kg, intravenous twice weekly for three weeks
[12] = paclitaxel study: suramin 10 mg/kg, paclitaxel 15 mg/kg, intravenous twice weekly for three weeks
[13] = suramin 10 mg/kg, doxorubicin 5 mg/kg, intravenous twice weekly for three weeks

Nc1nc(F)nc2c1ncn2[C@@H]1O[C@H](CO)[C@@H](O)[C@@H]1O [Fludarabine]
IC50 ([1]; Homo sapiens, read-out: IC50, Control (drug treatment only, without FGF treatment), No suramin, drug 96 hours): 5.15 µM | IC50 ([1]; Homo sapiens, read-out: IC50, aFGF 0.3 ng/ml + bFGF 1 ng/ml, No suramin, FGF pretreatment 96 hours, drug 96 hours): 13.5 µM | IC50 ([1]; Homo sapiens, read-out: IC50, aFGF 1 ng/ml + bFGF 3 ng/ml, No suramin, FGF pretreatment 96 hours, drug 96 hours): 21.9 µM | Resistance, Folds, aFGF 0.3 ng/ml + bFGF 1 ng/ml [1, 10]: 2.61 Folds | Resistance, Folds, aFGF 1 ng/ml + bFGF 3 ng/ml [1, 10]: 4.25 Folds | IC50 ([1]; read-out: IC50, Control (without FGF treatment), Suramin, 15 μM, drug 96 hours with 15 μM suramin): 5.2 µM | IC50 ([1]; read-out: IC50, aFGF 0.3 ng/ml + bFGF 1 ng/ml, With suramin, FGF pretreatment 96 hours, drug 96 hours with 15 micromolar suramin): 4.69 µM | IC50 ([1]; read-out: IC50, aFGF 1 ng/ml + bFGF 3 ng/ml, With suramin, FGF pretreatment 96 hours, drug 96 hours with 15 micromolar suramin): 5.85 µM | IC50 ([2]; absence of FGF): 4 µM | IC50 ([2]; r-aFGF (1 ng/ml) and r-bFGF (3 ng/ml)): 6 µM

Cc1ccc(C(=O)Nc2ccc(S(=O)(=O)O)c3cc(S(=O)(=O)O)cc(S(=O)(=O)O)c23)cc1NC(=O)c1cccc(NC(=O)Nc2cccc(C(=O)Nc3cc(C(=O)Nc4ccc(S(=O)(=O)O)c5cc(S(=O)(=O)O)cc(S(=O)(=O)O)c45)ccc3C)c2)c1 [Suramin]
IC50 [3]: 93 µM | total body clearance [4]: 0.0095 liter/hour/m^2 | suramin concentration that completely inhibited the bFGF-induced resistance (rat MAT-LyLu tumor cells [5]): 1 to 2 µM | IC50 [6]: 98 µM | concentration at 0 h (clinical): ~90 µg/mL | concentration at 96 h (clinical): ~18 µg/mL | IC50 (rat MAT-LyLu tumor cells [7]): 235 µM | % Apoptotic cells per tumor [8, 11]: 10 ± 7% | Density of nonapoptotic cells in residual tumors, cells/field [8, 11]: 139 ± 30 cells/field | % Apoptotic cells per tumor [8, 12]: 4 ± 3% | Density of nonapoptotic cells in residual tumors, cells/field [8, 12]: 185 ± 104 cells/field | antitumor effect and toxicity of suramin alone ([8]; suramin 10 mg/kg alone): no significant antitumor effect, nor toxicity | % Lung surface area occupied by tumor [8, 13]: 7 ± 3% | % Tumor-free animals [8, 13]: 0% | concentration needed to fully reverse the FGF-induced resistance [9]: 1 to 15 µM | animals free of tumors (human PC3 lung tumors): No animals | concentration at 72 h (in vivo): ~10 µM | effect on tumor growth (subcutaneous PC3 tumors): no antitumor activity

r-bFGF: human recombinant bFGF, identical to the 18 kDa human bFGF except for the extra methionine at the amino terminus
doubling time, unchanged by treatment (rat tumor cells): 17 h | concentration needed relative to the endogenous bFGF concentration in the native CM (rat MAT-LyLu cells; 50 ng/ml versus about 0.9 ng/ml): 55 fold | concentration of exogenous r-bFGF needed to restore the resistance (rat MAT-LyLu cells; CM depleted of both aFGF and bFGF): 50 ng/mL | doubling time, unchanged by treatment (PC3 tumor cells): 24 h

— patent US20040010001A1, “Methods and compositions for modulating cell proliferation and cell death” (priority 1999, published 2004)
